From ChEMBL document CHEMBL1135599, “Synthesis and evaluation of potent and selective beta(3) adrenergic receptor agonists containing acylsulfonamide, sulfonylsulfonamide, and sulfonylurea carboxylic acid isosteres” (J Med Chem, 2002)

Experiments:
[1] = Selectivity ratio (Beta-1EC50/ Beta-3EC50); assay type: functional
[2] = target: T1, Beta-3 adrenergic receptor (Homo sapiens, UniProt P13945); test: Activity against human beta 3 adrenergic receptor (AR), expressed in CHO cells.; assay type: functional, cell-based
Target sequence in this assay (P13945 whole entry): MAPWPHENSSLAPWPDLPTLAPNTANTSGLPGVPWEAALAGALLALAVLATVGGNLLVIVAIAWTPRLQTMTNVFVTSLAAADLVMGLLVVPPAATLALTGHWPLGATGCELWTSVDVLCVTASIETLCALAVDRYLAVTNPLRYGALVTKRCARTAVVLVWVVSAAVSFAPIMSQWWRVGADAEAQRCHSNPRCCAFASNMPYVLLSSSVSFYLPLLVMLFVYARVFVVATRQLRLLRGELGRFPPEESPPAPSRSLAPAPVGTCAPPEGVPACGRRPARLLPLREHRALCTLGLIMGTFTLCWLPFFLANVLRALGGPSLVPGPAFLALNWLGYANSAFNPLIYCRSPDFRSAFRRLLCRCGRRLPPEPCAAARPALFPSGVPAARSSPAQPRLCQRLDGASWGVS

[3] = plasma concentration at the 2.5 hour time; significant; assay type: ADME
[4] = Half life (t1/2) value in dogs after an intravenous dose of 0.2 mg/Kg; assay type: ADME, organism-based, Canis lupus familiaris; conditions: dog, in vivo
[5] = target: T2, Beta-2 adrenergic receptor (Homo sapiens, UniProt P07550); test: concentration-response expressed as a percent of the maximal response to R-(-) isoprenaline (ISO); assay type: functional
Target sequence in this assay (P07550 whole entry, looked up): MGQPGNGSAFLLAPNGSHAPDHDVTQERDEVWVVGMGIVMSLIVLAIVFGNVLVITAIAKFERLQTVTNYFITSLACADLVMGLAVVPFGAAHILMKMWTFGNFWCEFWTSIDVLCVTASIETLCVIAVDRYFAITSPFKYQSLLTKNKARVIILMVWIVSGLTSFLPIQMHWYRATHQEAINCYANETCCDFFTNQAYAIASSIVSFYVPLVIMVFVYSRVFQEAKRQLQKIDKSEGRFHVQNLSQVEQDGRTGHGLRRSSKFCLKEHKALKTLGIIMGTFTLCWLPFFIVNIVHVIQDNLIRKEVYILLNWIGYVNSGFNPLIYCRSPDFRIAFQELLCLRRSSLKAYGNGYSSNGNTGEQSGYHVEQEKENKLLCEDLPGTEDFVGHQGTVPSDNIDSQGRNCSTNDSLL

[6] = Selectivity ratio (Beta-2EC50/ Beta-3EC50); assay type: functional
[7] = target: T2, Beta-2 adrenergic receptor; test: Activity against human beta 2 adrenergic receptor (AR), expressed in CHO cells; assay type: functional, cell-based
Target sequence in this assay (P07550 whole entry): as the sequence (P07550 whole entry, looked up) above

[8] = target: T1, Beta-3 adrenergic receptor; test: (§1) concentration-response expressed as a percent of the maximal response to R-(-) isoproterenol (ISO); assay type: functional
Target sequence in this assay (P13945 whole entry, looked up): as the sequence (P13945 whole entry) above

[9] = target: T3, Beta-1 adrenergic receptor (Homo sapiens, UniProt P08588); test: as §1; assay type: functional
Target sequence in this assay (P08588 whole entry, looked up): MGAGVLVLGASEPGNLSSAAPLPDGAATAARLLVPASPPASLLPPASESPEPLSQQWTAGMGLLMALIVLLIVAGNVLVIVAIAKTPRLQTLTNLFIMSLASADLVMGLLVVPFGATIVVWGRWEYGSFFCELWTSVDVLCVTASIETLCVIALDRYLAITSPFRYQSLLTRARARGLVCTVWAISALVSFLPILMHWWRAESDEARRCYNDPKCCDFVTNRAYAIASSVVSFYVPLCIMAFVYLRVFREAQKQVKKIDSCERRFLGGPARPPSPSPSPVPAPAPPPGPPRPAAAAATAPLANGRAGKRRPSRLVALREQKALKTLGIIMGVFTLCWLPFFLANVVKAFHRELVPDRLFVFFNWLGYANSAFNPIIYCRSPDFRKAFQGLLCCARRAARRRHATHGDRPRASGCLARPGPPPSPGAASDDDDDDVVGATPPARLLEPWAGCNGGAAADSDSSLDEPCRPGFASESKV

[10] = target: T1, Beta-3 adrenergic receptor; test: (§2) concentration-response expressed as a percent of the maximal response to R-(-) isoproterenol (ISO).Emax is the fitted maximal value of the concentration; assay type: functional
Target sequence in this assay (P13945 whole entry, looked up): as the sequence (P13945 whole entry) above

[11] = target: T3, Beta-1 adrenergic receptor; test: as §2; assay type: functional
Target sequence in this assay (P08588 whole entry, looked up): as the sequence (P08588 whole entry, looked up) above

[12] = target: T2, Beta-2 adrenergic receptor; test: as §2; assay type: functional
Target sequence in this assay (P07550 whole entry, looked up): as the sequence (P07550 whole entry, looked up) above

[13] = target: T2, Beta-2 adrenergic receptor; test: Receptor binding assay(Beta-2 adrenergic receptor) carried out with membranes prepared from human recombinant Sf9 cells expressing the cloned human receptor in the presence of [125I]iodocyanopindolol; assay type: cell membranes
Target sequence in this assay (P07550 whole entry): as the sequence (P07550 whole entry, looked up) above

[14] = plasma concentration at the 2.5 hour time; assay type: ADME; conditions: read-out: C
[15] = Volume distribution in dogs after an intravenous dose of 0.2 mg/Kg; assay type: ADME, organism-based; conditions: dog, in vivo
[16] = target: T3, Beta-1 adrenergic receptor; test: Receptor binding assay(Beta-1 adrenergic receptor) carried out with membranes prepared from human recombinant Sf9 cells expressing the cloned human receptor in the presence of [125I]iodocyanopindolol; assay type: cell membranes
Target sequence in this assay (P08588 whole entry): as the sequence (P08588 whole entry, looked up) above

[17] = target: T3, Beta-1 adrenergic receptor; test: Ability to cause cAMP accumulation in CHO cells expressing human beta-1 AR expressed as the negative logarithm of the molar drug concentration; assay type: functional, cell-based
Target sequence in this assay (P08588 whole entry): as the sequence (P08588 whole entry, looked up) above

[18] = target: T2, Beta-2 adrenergic receptor; test: Ability to cause cAMP accumulation in CHO cells expressing human beta-2 AR expressed as the negative logarithm of the molar drug concentration; assay type: functional, cell-based
Target sequence in this assay (P07550 whole entry): as the sequence (P07550 whole entry, looked up) above

Canis familiaris = test: Plasma clearance in dogs after an intravenous dose of 0.2 mg/Kg; assay type: ADME, organism-based, Canis lupus familiaris; conditions: dog, in vivo
[19] = target: T1, Beta-3 adrenergic receptor
Target sequence in this assay (P13945 whole entry): as the sequence (P13945 whole entry) above

[20] = Area under curve (AUC) value in dogs after an intravenous dose of 0.2 mg/Kg in 0.025 M aqueous methanesulfonic acid solution with 5% mannitol at a concentration of 0.2; assay type: ADME, organism-based, Canis lupus familiaris; conditions: dog, in vivo
[21] = target: T3, Beta-1 adrenergic receptor; test: Concentration that causes 50% inhibition of human beta 1 adrenergic receptor (AR), expressed in CHO cells.; assay type: functional, cell-based
Target sequence in this assay (P08588 whole entry): as the sequence (P08588 whole entry, looked up) above

[22] = target: T2, Beta-2 adrenergic receptor; test: Concentration that causes 50% inhibition of human beta 2 adrenergic receptor (AR), expressed in CHO cells.; assay type: functional, cell-based
Target sequence in this assay (P07550 whole entry): as the sequence (P07550 whole entry, looked up) above

[23] = target: T1, Beta-3 adrenergic receptor; test: Ability to cause cAMP accumulation in CHO cells expressing human beta-3 AR expressed as the negative logarithm of the molar drug concentration; assay type: functional, cell-based
Target sequence in this assay (P13945 whole entry): as the sequence (P13945 whole entry) above

[24] = Area under curve (AUC) value in dogs after an intravenous dose of 0.2 mg/Kg in 0.025 M aqueous methanesulfonic acid solution with 5% mannitol; assay type: ADME; conditions: dog, in vivo
[25] = target: T2, Beta-2 adrenergic receptor; test: concentration-response expressed as a percent of the maximal response to R-(-) isoprenaline (ISO).Emax is the fitted maximal value of the concentration; assay type: functional
Target sequence in this assay (P07550 whole entry, looked up): as the sequence (P07550 whole entry, looked up) above

| Compound | Ratio [1] | Ratio [6] | Emax [10] [%] | Emax [11] [%] | Emax [12] [%] | EC50 [17] [nM] | EC50 [18] [nM] | EC50 [19] [nM] | also measured |
| --- | --- | --- | --- | --- | --- | --- | --- | --- | --- |
| C[C@H](CNc1cccc(CCS(=O)(=O)NS(=O)(=O)c2ccccc2)c1)NC[C@H](O)c1cccc(Cl)c1 | > 500 | 630 |  |  |  |  |  |  | EC50 [2]: 1.58 nM; C [3]: Not Active; half-life [4]: < 1 h; Emax [5]: 31%; EC50 [7]: 1000 nM; Emax [8]: 113%; Emax [9]: 21% |
| Cc1ccc(S(=O)(=O)NC(=O)Cc2ccc(NC[C@@H](C)NC[C@H](O)c3cccc(Cl)c3)cc2)cc1 | 501 | 63 | 98 | 23 | 34 | 631 | 79.4 | 1.26 | IC50 [13]: 5010 nM; concentration at 2.5 h [14]: 42.1 ng/mL; Vd [15]: 0.2 L/kg; IC50 [16]: 2000 nM; half-life [4]: 1 h; Clp (Canis familiaris): 4.7 mL/min/kg; AUC [20]: 715 ng·h/mL |
| C[C@H](CNc1cccc(CNC(=O)NS(=O)(=O)c2ccccc2)c1)NC[C@H](O)c1cccc(Cl)c1 | 25 | 16 | 105 | 15 | 23 |  |  |  | half-life [4]: < 1 h; EC50 [21]: 398 nM; EC50 [22]: 251 nM; EC50 [23]: 15.8 nM |
| C[C@H](CNc1ccc(CC(=O)Nc2nccs2)cc1)NC[C@H](O)c1cccc(Cl)c1 | 2.5 | 6.3 | 101 | 14 | 31 | 3.16 | 7.94 | 1.26 |  |
| C[C@H](CNc1ccc(CNS(C)(=O)=O)cc1)NC[C@H](O)c1cccc(Cl)c1 | 0.4 | 0.4 | 102 | 11 | 66 | 5.01 | 5.01 | 20 |  |
| C[C@H](CNc1ccccc1)NC[C@H](O)c1cccc(Cl)c1 | 0.3 | 0.5 | 105 | 27 | 100 | 5.01 | 10 | 20 |  |
| Cc1ccc(S(=O)(=O)NC(=O)Cc2cccc(NC[C@@H](C)NC[C@H](O)c3cccc(Cl)c3)c2)cc1 | > 794 | > 158 | 98 | 8 | 16 |  |  | 6.31 | IC50 [13]: 15800 nM; concentration at 2.5 h [14]: 10.3 ng/mL; Vd [15]: 0.409 L/kg; AUC [24]: 279 ng·h/mL; IC50 [16]: 5010 nM; half-life [4]: 1.7 h; EC50 [21]: > 5010 nM; EC50 [22]: > 1000 nM; Clp (Canis familiaris): 11.9 mL/min/kg |
| C[C@H](CNc1ccc(CC(=O)NS(=O)(=O)c2ccccc2)cc1)NC[C@H](O)c1cccc(Cl)c1 | 1000 | 40 | 110 | 22 | 59 | 794 | 31.6 | 0.794 |  |
| Cc1ccc(S(=O)(=O)NCCc2ccc(NC[C@@H](C)NC[C@H](O)c3cccc(Cl)c3)cc2)cc1 | 1 | 0.5 | 98 | 22 | 28 | 20 | 10 |  | EC50 [23]: 20 nM |
| C[C@H](CNc1ccc(C(=O)O)cc1)NC[C@H](O)c1cccc(Cl)c1 | 0.8 | 4 | 79 | 17 | 70 | 631 | 3160 | 794 |  |
| C[C@H](CNc1ccc(CC(=O)O)cc1)NC[C@H](O)c1cccc(Cl)c1 | 5 | 3.1 |  |  |  | 79.4 | 50.1 | 15.8 | IC50 [13]: 794 nM; IC50 [16]: 1000 nM; Emax [25]: 90% |
| CC(=O)NCc1ccc(NC[C@@H](C)NC[C@H](O)c2cccc(Cl)c2)cc1 | 0.6 | 0.3 | 123 | 15 | 75 | 7.94 | 3.16 | 12.6 |  |
| C[C@H](CNc1ccc(CC(=O)NS(C)(=O)=O)cc1)NC[C@H](O)c1cccc(Cl)c1 | 20 | 4 | 96 | 30 | 78 | 100 | 20 | 5.01 |  |
| C[C@H](CNc1ccc(CCS(=O)(=O)NC(=O)c2ccccc2)cc1)NC[C@H](O)c1cccc(Cl)c1 | 79 | 32 | 100 | 27 | 52 |  |  |  | Vd [15]: 0.478 L/kg; AUC [24]: 383 ng·h/mL; half-life [4]: 1.2 h; EC50 [21]: 794 nM; EC50 [22]: 316 nM; Clp (Canis familiaris): 8.7 mL/min/kg; EC50 [23]: 10 nM |
| C[C@H](CNc1ccc(CCC(=O)O)cc1)NC[C@H](O)c1cccc(Cl)c1 | 10 | 16 | 104 | 10 | 22 | 251 | 398 | 25.1 |  |
| C[C@H](CNc1cccc(CC(=O)O)c1)NC[C@H](O)c1cccc(Cl)c1 |  | 0.2 | 117 | 6 |  | > 10000 | 50.1 | 316 | Emax [25]: 80% |
| C[C@H](Cc1ccc(OCC(=O)O)cc1)NC[C@H](O)c1cccc(Cl)c1 |  |  |  | 28 |  |  |  |  | Emax [25]: 80% |
| Cc1ccc(CNC(=O)Cc2ccc(NC[C@@H](C)NC[C@H](O)c3cccc(Cl)c3)cc2)cc1 | 0.4 | 0.02 | 126 | 12 | 40 | 25.1 | 1 |  | EC50 [23]: 63.1 nM |
